{
  "source": "patent US5578445A",
  "about": "“In vitro method of evaluating the effects of a substance” (priority 1991, dated 1996)",
  "system": "ZR 75-1",
  "assay": "Proliferation, amount of ATP after 6 days, ZR 75-1",
  "format": "cell-based, human",
  "experimental": "The growth is determined by measuring the amount of ATP in the cells after incubation with ligands for 6 days. […]\nSamples of the cells ZR 75-1 (8000 cells/well) and MCF7 (4000 cells/well), respectively, were distributed into microtiter plates having 96 wells.\nThe following hormone additions were made:\nThe medium was replaced by fresh medium of the same composition as on day 6, and hormone additions as on day 6.\n6 days after hormone addition the number of cells and their morphology were investigated. Medium from each well was poured off. To each well was added 100 μl 1% TCA (trichloro acetic acid).",
  "data": [
    {"molecule": "O=C(c1ccc(OCCN2CCCC2)cc1)c1c(-c2ccc(O)cc2)sc2cc(O)ccc12", "note": "[LY 117018]", "values": [
      {"measurement": "inhibition of growth", "setting": "0.1 nM E2 and 10 nM LY 117018", "value": "inhibited down to the same level as in the absence of added hormone"},
      {"measurement": "function on growth", "setting": "10^-7 M LY 117018, presence of 10^-10 M E2", "value": "functions as an antagonist"},
      {"measurement": "activity at 1 µM", "setting": "Homo sapiens, ZR-75-1, 144 h, + 10^-6 M LY 117018, -E2, 6 days, read-out: relative amount of ATP (no hormone added = 1)", "value": 69, "unit": "%"},
      {"measurement": "activity at 0.1 µM", "setting": "Homo sapiens, ZR-75-1, 144 h, + 10^-7 M LY 117018, -E2, 6 days, read-out: relative amount of ATP (no hormone added = 1)", "value": 99, "unit": "%"},
      {"measurement": "activity at 0.01 µM", "setting": "Homo sapiens, ZR-75-1, 144 h, + 10^-8 M LY 117018, -E2, 6 days, read-out: relative amount of ATP (no hormone added = 1)", "value": 89, "unit": "%"},
      {"measurement": "activity at 0.001 µM", "setting": "Homo sapiens, ZR-75-1, 144 h, + 10^-9 M LY 117018, -E2, 6 days, read-out: relative amount of ATP (no hormone added = 1)", "value": 103, "unit": "%"},
      {"measurement": "antagonist strength compared with Tamoxifen, growth", "setting": "presence of 0.1 nM E2", "value": "stronger antagonist than Tamoxifen"}
    ]}
  ]
}
